Experimental data from article PMC8069330, “Chirality of Novel Bitopic Agonists Determines Unique Pharmacology at the Dopamine D3 Receptor” (Biomolecules, 2021).

How the values were obtained:
Format in all cases: cell-based
D2R [1] = molecular target: T1, D2R (Homo sapiens, UniProt P14416); test: BRET-based β-arrestin recruitment assay at D2R (10 min); settings: D2R, 10 min; for EC50: read-out: β-arrestin Recruitment pEC50 ± SEM (converted)
T1 construct: expressed in transfected cells; host or cells: HEK293T
Target sequence in this assay (P14416 whole entry): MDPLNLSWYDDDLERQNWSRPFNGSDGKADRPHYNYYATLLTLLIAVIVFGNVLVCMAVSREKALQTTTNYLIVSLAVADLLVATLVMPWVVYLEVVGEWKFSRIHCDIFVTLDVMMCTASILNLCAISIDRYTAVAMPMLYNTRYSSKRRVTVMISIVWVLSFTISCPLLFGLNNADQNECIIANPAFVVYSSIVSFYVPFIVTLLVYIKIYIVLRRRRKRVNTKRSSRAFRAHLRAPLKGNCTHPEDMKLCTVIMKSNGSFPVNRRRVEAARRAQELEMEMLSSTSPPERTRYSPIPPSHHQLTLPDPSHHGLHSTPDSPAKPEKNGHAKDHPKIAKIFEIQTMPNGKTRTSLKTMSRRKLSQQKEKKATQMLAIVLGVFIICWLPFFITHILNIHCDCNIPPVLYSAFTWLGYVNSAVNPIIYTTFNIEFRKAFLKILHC
Target sequence in this assay (P32121 whole entry partner): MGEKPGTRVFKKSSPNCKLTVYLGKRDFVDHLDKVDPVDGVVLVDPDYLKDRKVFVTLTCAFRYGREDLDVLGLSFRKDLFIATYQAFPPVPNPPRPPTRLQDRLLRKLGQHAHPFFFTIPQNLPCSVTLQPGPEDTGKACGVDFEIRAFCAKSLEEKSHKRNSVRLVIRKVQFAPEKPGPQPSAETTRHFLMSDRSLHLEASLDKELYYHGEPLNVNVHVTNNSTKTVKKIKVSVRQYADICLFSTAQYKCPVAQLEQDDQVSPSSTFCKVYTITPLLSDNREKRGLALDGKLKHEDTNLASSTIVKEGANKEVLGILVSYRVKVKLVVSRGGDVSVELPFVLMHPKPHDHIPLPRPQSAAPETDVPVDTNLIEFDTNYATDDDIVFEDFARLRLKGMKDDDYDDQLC

D3R [2] = molecular target: T2, D3R (Homo sapiens, UniProt P35462); test: BRET-based β-arrestin recruitment assay at D3R (10 min); settings: D3R; for EC50: read-out: β-arrestin Recruitment pEC50 ± SEM (converted)
T2 construct: expressed in transfected cells; host or cells: HEK293T
Target sequence in this assay (P35462 whole entry): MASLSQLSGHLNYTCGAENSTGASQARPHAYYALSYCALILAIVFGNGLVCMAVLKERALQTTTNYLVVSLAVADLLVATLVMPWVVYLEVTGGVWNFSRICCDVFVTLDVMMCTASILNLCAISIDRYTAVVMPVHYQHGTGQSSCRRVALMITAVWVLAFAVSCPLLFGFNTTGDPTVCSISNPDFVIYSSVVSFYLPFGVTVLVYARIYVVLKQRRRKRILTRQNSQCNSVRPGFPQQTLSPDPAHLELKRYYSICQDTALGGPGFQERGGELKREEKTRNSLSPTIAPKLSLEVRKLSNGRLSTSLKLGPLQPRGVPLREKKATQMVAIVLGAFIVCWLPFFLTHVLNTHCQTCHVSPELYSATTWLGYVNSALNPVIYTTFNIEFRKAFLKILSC
Target sequence in this assay (P32121 whole entry partner): as the sequence (P32121 whole entry partner) above

D3R [3] = molecular target: T2, D3R; test: BRET-based Go protein activation assay at D3R (10 min); settings: for Selectivity (D2R/D3R) Go Protein Activation: D3R over D2R selectivity; for EC50: read-out: Go Protein Activation Assay pEC50 ± SEM (converted); for Bias Factors D3R: Go protein vs β-arrestin, log10(Emax/EC50)G protein − log10(Emax/EC50)β arrestin
Target sequence in this assay (P35462 whole entry): as the sequence (P35462 whole entry) above

D2R [4] = molecular target: T1, D2R; test: BRET-based Go protein activation assay at D2R (10 min); settings: 10 min; for EC50: read-out: Go Protein Activation Assay pEC50 ± SEM (converted); for Bias Factors D2R: Go protein vs β-arrestin, log10(Emax/EC50)G protein − log10(Emax/EC50)β arrestin
Target sequence in this assay (P14416 whole entry): as the sequence (P14416 whole entry) above

Compound | β-arrestin Recruitment Change Emax over Quinpirole (D2R [1]) | β-arrestin Recruitment Emax ± SEM (% of Quinpirole) (D2R [1]) | β-arrestin Recruitment Fold Potency over Quinpirole (D2R [1]) [fold] | EC50 (D2R [1]) [nM] | β-arrestin Recruitment Change Emax over Quinpirole (D3R [2]) | β-arrestin Recruitment Fold Potency over Quinpirole (D3R [2]) [fold] | EC50 (D3R [2]) [nM] | Go Protein Activation Assay Change Emax over Quinpirole (D3R [3]; D3R) | Go Protein Activation Assay Emax ± SEM (% of Quinpirole) (D3R [3]; D3R) | Go Protein Activation Assay Fold Potency over Quinpirole (D3R [3]; D3R) [fold] | Selectivity (D2R/D3R) Go Protein Activation (D3R [3]) [fold] | EC50 (D3R [3]; D3R) [nM] | Bias Factors D3R (D3R [3]) | Go Protein Activation Assay Change Emax over Quinpirole (D2R [4]; D2R) | Go Protein Activation Assay Emax ± SEM (% of Quinpirole) (D2R [4]; D2R) | Go Protein Activation Assay Fold Potency over Quinpirole (D2R [4]; D2R) [fold] | EC50 (D2R [4]; D2R) [nM] | Bias Factors D2R (D2R [4]) | also measured
C[C@H]1COC(c2ccc(N)nc2)CN1CCCCOc1ccc2c(c1)NC(=O)CC2 (mixture of isomers) [rac-AB04-35] | 2.80 | 102.8 ± 2.5 % of Quinpirole | 0.06 | 1820 | −5.2 | 0.009 | 490 | −6.1 | 93.9 ± 3.0 ^δδδδ % of Quinpirole | 0.051 | 5.8 | 57.5 | 0.9 | −24.10 | 75.9 ± 5.3 % of Quinpirole | 0.10 | 331 | 0.6 | β-arrestin Recruitment Emax ± SEM (% of Quinpirole) (D3R [2]): 94.8 ± 3.7 ^δδ % of Quinpirole
C[C@H]1CO[C@H](c2ccc(N)nc2)CN1CCCCOc1ccc2c(c1)NC(=O)CC2 [AB04-95] |  |  |  |  |  |  |  |  |  |  |  |  |  |  |  |  |  |  | Activity in D2R β-arrestin recruitment (result in words) (D2R [1]): did not show any activity; D3R mediated β-arrestin recruitment (result in words) (D3R [2]): near complete abolishment; D3R mediated Go protein activation (result in words) (D3R [3]; D3R): near complete abolishment; Activity in D2R Go protein activation (result in words) (D2R [4]; D2R): did not show any activity
C[C@H]1CO[C@@H](c2ccc(N)nc2)CN1CCCCOc1ccc2c(c1)NC(=O)CC2 [AB04-96] | 21.6 | 121.6 ± 8.2 % of Quinpirole | 0.16 | 724 | 4.0 | 0.025 | 174 | 0.4 | 100.4 ± 2.7 ^δδδδ % of Quinpirole | 0.158 | 2.8 | 18.6 | 1.0 | 2.70 | 102.7 ± 4.0 % of Quinpirole | 0.66 | 52.5 | 1.1 | Higher efficacy compared to quinpirole in D2R mediated β-arrestin recruitment (D2R [1]): ~ 22%
